Results from patent publication US9169252B2 (BRISTOL-MYERS SQUIBB COMPANY, priority 2014, dated 2015).
Structures can show the parent of a compound that is named as a salt. Where two headings read alike, the source gives them in different places.

Key:
[1] = tested on: TLR2 induced IL-6 in peripheral blood mononuclear cells (PBMCs); experiment: PBMC TLR2 Induced IL-6 Assay; type: cell-based, human; conditions: for EC50: read-out: Cell EC50; for IC50: read-out: Cell IC50
In short: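 Lipoteichoic acid at 10 µg/ml served as TLR2 stimulus for 5 hours, following a 30-minute compound pretreatment at 37° C. Cells were Ficoll-isolated human PBMCs, 250000 cells/well, cultured in RPMI plus 10% heat-inactivated FCS.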

IRAK4 = IRAK4 (Homo sapiens (Human), UniProt Q9NWZ3); experiment: IRAK4 Inhibition Assay; type: biochemical; conditions: IRAK4 Inhibition Assay, ATP 500 μM, read-out: IRAK4 IC50
In short: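 Mobility-shift readout: fluorescent substrate and phosphoproduct resolved electrophoretically on Caliper LabChip 3000 after EDTA quench (35 mM). Enzyme reaction of IRAK4, substrates and test compound ran 60 min at room temperature.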

[2] = Homo sapiens, PBMC, PBMC TLR2 Induced IL-6 Assay, lipoteichoic acid stimulation, IL-6 by ELISA

IRAK4, sequence (Q9NWZ3 whole entry, species assumed): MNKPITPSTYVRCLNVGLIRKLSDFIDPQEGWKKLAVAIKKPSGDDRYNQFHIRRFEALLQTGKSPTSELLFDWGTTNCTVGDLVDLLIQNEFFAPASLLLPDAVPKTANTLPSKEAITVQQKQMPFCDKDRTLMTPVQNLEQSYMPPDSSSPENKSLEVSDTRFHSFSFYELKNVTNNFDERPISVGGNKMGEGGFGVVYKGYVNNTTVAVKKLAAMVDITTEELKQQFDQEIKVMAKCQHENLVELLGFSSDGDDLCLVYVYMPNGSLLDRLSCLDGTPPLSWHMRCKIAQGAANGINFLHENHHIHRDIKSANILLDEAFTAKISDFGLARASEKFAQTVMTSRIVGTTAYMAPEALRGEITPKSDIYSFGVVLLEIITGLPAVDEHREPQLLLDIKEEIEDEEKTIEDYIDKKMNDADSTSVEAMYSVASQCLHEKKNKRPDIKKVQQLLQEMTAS

SMILES | IC50 (IRAK4) [nM] | EC50 [1, 2] [nM] | also measured
CC(C)Nc1cc(-n2ncc3cc(C#N)cnc32)ncc1C(=O)NC[C@@H](F)C(C)(C)OP(=O)(O)O [Example 191, (R)-4-(6-(5-Cyano-1H-pyrazolo[3,4-b]pyridin-1-yl)-4-(isopropylamino)nicotinamido)-3-fluoro-2-methylbutan-2-yl dihydrogen phosphate] | 14.7 | 10000 | 
CC(C)Nc1cc(-n2ncc3cc(C#N)cnc32)ncc1C(=O)NC[C@@H](F)C(C)(C)O [Example 192, (R)-6-(5-Cyano-1H-pyrazolo[3,4-b]pyridin-1-yl)-N-(2-fluoro-3-hydroxy-3-methylbutyl)-4-(isopropylamino)nicotinamide, hydrochloride] |  |  | EC50 ([1]; PBMC TLR2 Induced IL-6 Assay, lipoteichoic acid stimulation, IL-6 by ELISA, hydrochloride): 120 nM; IC50 (IRAK4; hydrochloride): 2.6 nM
COc1cnc2c(cnn2-c2cc(NC(C)C)c(C(=O)NC[C@@H](F)C(C)(C)O)cn2)c1 [Example 195] | 19.4 | 340 | IC50 [1, 2]: 647 nM
CC(C)Nc1cc(-n2ncc3cc(C#N)cnc32)ncc1C(=O)NC[C@H](F)C(C)(C)O [Example 196] | 10.4 | 304 | IC50 [1, 2]: 328 nM
CC(C)NC(=O)[C@H](F)CNC(=O)c1cnc(-n2ncc3cc(C#N)cnc32)cc1NC(C)C [Example 197] | 8.1 | 297 | 
CCCCNC(=O)c1cnc(-n2ncc3cc(C#N)cnc32)cc1NC(C)C [Example 199] | 6.3 | 281 | 
CC(C)Nc1cc(-n2ncc3cc(C#N)cnc32)ncc1C(=O)NCCCN1CCOCC1 [Example 201] | 16.3 | 583 | 
CC(C)Nc1cc(-n2ncc3cc(C#N)cnc32)ncc1C(=O)NCC(=O)N1CCOCC1 [Example 206] | 14.4 | 86 | 
COC(=O)CCNC(=O)c1cnc(-n2ncc3cc(C#N)cnc32)cc1NC(C)C [Example 207] | 10.3 | 227 | 
CCOP(=O)(CCNC(=O)c1cnc(-n2ncc3cc(C#N)cnc32)cc1NC(C)C)OCC [Example 208] | 16 |  | EC50 ([1]; Homo sapiens, PBMC): 238 nM
CC(C)Nc1cc(-n2ncc3cc(C#N)cnc32)ncc1C(=O)NCCN1CCS(=O)(=O)CC1 [Example 211] | 8.1 | 87 | 
CCNC(=O)CCNC(=O)c1cnc(-n2ncc3cc(C#N)cnc32)cc1NC(C)C [Example 212] | 12.4 | 192 | 
CC(C)Nc1cc(-n2ncc3cc(C#N)cnc32)ncc1C(=O)NCCCc1ncn[nH]1 [Example 213] | 14.8 | 428 | 
Cc1cnc2c(cnn2-c2cc(NC(C)C)c(C(=O)N[C@H]3CC[C@H](C(C)(C)O)CC3)cn2)c1 [Example 214] | 13.6 | 209 | 
CC(C)Nc1cc(-n2ncc3cc(C#N)cnc32)ncc1C(=O)Nc1ccc(O)cn1 [Example 217] | 15.5 | 503 | 

Further lines, with some results ahead:

IC50 (IRAK4) [nM] | SMILES | EC50 [1, 2] [nM] | also measured
1.8 | CC(C)Nc1cc(-n2ccc3cc(C#N)cnc32)ncc1C(=O)N[C@H]1CC[C@@](F)(c2nccn2C)CC1 [Example 182, 6-(5-cyano-1H-pyrrolo[2,3-b]pyridin-1-yl)-N-((trans)-4-fluoro-4-(1-methyl-1H-imidazol-2-yl)cyclohexyl)-4-(isopropylamino)nicotinamide] | 74 | 
4.1 | CC(C)Nc1cc(-n2ccc3cc(C#N)cnc32)ncc1C(=O)NC1CCC2(CC1)NC(=O)NC2=O (stereo not shown) [Example 183, 6-(5-Cyano-1H-pyrrolo[2,3-b]pyridin-1-yl)-N-(2,4-dioxo-1,3-diazaspiro[4.5]decan-8-yl)-4-(isopropylamino)nicotinamide] | 179 | 
5.5 | CC(C)Nc1cc(-n2ccc3cc(C#N)cnc32)ncc1C(=O)N[C@@H]1CC=C(c2ccncc2)CC1 [Example 184, (S)-6-(5-Cyano-1H-pyrrolo[2,3-b]pyridin-1-yl)-4-(isopropylamino)-N-(4-(pyridin-4-yl)cyclohex-3-en-1-yl)nicotinamide] | 436 | 
3.4 | CC(C)Nc1cc(-n2ccc3cnc(N(C)C)nc32)ncc1C(=O)NC[C@@H](F)C(C)(C)O [Example 185, (R)-6-(2-(Dimethylamino)-7H-pyrrolo[2,3-d]pyrimidin-7-yl)-N-(2-fluoro-3-hydroxy-3-methylbutyl)-4-(isopropylamino)nicotinamide] | 350 | 
1.3 | CC(C)Nc1cc(-n2ccc3cnc(N)nc32)ncc1C(=O)NC[C@@H](F)C(C)(C)O [Example 186, (R)-6-(2-Amino-7H-pyrrolo[2,3-d]pyrimidin-7-yl)-N-(2-fluoro-3-hydroxy-3-methylbutyl)-4-(isopropylamino)nicotinamide] | 44 | 
1.9 | CC(C)Nc1cc(-n2ccc3cnc(NCC(C)(C)O)nc32)ncc1C(=O)NC[C@@H](F)C(C)(C)O [Example 187, (R)—N-(2-Fluoro-3-hydroxy-3-methylbutyl)-6-(2-((2-hydroxy-2-methylpropyl)amino)-7H-pyrrolo[2,3-d]pyrimidin-7-yl)-4-(isopropylamino)nicotinamide] | 86 | 
1.7 | CC(C)Nc1cc(-n2ccc3cnc(NCCO)nc32)ncc1C(=O)NC[C@@H](F)C(C)(C)O [Example 188, (R)—N-(2-fluoro-3-hydroxy-3-methylbutyl)-6-(2-((2-hydroxyethyl)amino)-7H-pyrrolo[2,3-d]pyrimidin-7-yl)-4-(isopropylamino)nicotinamide] | 57 | 
4.8 | CC(C)Nc1cc(-n2ccc3cnc(N4CC[C@H](O)C4)nc32)ncc1C(=O)NC[C@@H](F)C(C)(C)O [Example 189, N—((R)-2-fluoro-3-hydroxy-3-methylbutyl)-6-(2-((S)-3-hydroxypyrrolidin-1-yl)-7H-pyrrolo[2,3-d]pyrimidin-7-yl)-4-(isopropylamino)nicotinamide] | 75 | 
4.7 | CC(C)Nc1cc(-n2ccc3cnc(N4CC[C@@H](O)C4)nc32)ncc1C(=O)NC[C@@H](F)C(C)(C)O [Example 190, N—((R)-2-fluoro-3-hydroxy-3-methylbutyl)-6-(2-((R)-3-hydroxypyrrolidin-1-yl)-7H-pyrrolo[2,3-d]pyrimidin-7-yl)-4-(isopropylamino)nicotinamide] | 120 | 
3.4 | CC[C@@H](C)Nc1cc(-n2ncc3cc(C#N)cnc32)ncc1C(=O)NCCC(C)(C)O [Example 193, (R)-4-(sec-Butylamino)-6-(5-cyano-1H-pyrazolo[3,4-b]pyridin-1-yl)-N-(3-hydroxy-3-methylbutyl)nicotinamide] |  | IC50 [1, 2]: 287 nM
3.4 | COC1CCC(NC(=O)c2cnc(-n3ncc4cc(C#N)cnc43)cc2NC(C)C)CC1 (stereo not shown) [Example 198] | 134 | 
2.8 | COC(C)(C)[C@H](F)CNC(=O)c1cnc(-n2ncc3cc(C#N)cnc32)cc1NC(C)C [Example 200] | 79 | 
4.9 | CC(C)Nc1cc(-n2ncc3cc(C#N)cnc32)ncc1C(=O)NCCN1CCOCC1 [Example 204] | 174 | 
3.1 | [2H]C([2H])([2H])OC(C)(C)[C@H](F)CNC(=O)c1cnc(-n2ncc3cc(C#N)cnc32)cc1NC(C)C [Example 210] | 206 | 
3.7 | CCOC(C)(C)[C@H](F)CNC(=O)c1cnc(-n2ncc3cc(C#N)cnc32)cc1NC(C)C [Example 215] | 144 | 
4.5 | CC(C)Nc1cc(-n2ncc3cc(C#N)cnc32)ncc1C(=O)Nc1ccc(N2CCOCC2)nc1 [Example 216] | 253 | 
